# pKi: −log10 of the molar value.
# Columns and labels:
# [1] = target: T1, 11β HSD1 (11β-hydroxysteroid dehydrogenase type 1) (Mus musculus, UniProt P50172); assay: in vitro enzyme inhibition assay with purified recombinant enzyme; format: biochemical
# T1 construct: gene Hsd11b1; purified recombinant mouse 11β HSD1
# [2] = target: T2, 11β HSD1 (11β-hydroxysteroid dehydrogenase type 1) (Homo sapiens, UniProt P28845); assay: as above; format: biochemical
# T2 construct: gene HSD11B1; purified recombinant human 11β HSD1
# T2 sequence (P28845 whole entry): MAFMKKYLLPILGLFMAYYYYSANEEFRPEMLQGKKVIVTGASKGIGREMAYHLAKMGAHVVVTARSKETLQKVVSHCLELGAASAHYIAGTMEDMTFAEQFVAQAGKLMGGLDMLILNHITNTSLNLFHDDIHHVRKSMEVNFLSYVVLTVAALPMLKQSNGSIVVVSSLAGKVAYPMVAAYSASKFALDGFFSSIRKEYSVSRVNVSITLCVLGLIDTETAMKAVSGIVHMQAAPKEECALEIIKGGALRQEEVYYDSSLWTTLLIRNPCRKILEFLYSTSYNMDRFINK
# T1 sequence (P50172 whole entry): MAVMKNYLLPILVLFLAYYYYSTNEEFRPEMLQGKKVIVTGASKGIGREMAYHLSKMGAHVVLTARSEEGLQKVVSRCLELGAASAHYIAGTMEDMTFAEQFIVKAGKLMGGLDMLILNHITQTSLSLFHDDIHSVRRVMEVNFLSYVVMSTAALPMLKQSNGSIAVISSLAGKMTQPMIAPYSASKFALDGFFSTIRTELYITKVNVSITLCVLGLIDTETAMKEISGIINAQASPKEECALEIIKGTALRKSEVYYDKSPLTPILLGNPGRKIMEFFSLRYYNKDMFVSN
smiles,measurement,setting,value
"C[C@H](NC1=NC(=O)[C@@](C)(C(F)(F)F)S1)c1ccccc1F [BVT116429, (S)-2-((S)-1-(2-fluorophenyl)ethylamino)-5-methyl-5-(trifluoromethyl)thiazol-4(5H)-one]",pKi,[1],7.44
same,pKi,[2],7.54
